The record followed here is the supplement of paper PMC11451515.

For assay [1], the system named is NOMO1. The experiment in a line: AUC of viability dose-response curve (% viability x log10 dose units); higher = less sensitive. Conditions: 48 h. The procedure, abridged: (§1)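 Medium-adapted leukemia cells in 1536-well plates, at 500 or 1000 cells/well, were incubated for 48 h at 37°C with library compounds in DMSO at 11 threefold doses from 47 μM to 0.79 nM. CellTiter-Glo One luminescence normalised per plate to DMSO and cell-free wells was fitted with a four-parameter log-logistic model over log10 doses. Area under the curve was integrated from this fit by trapezoidal rule, with curves beyond full viability scaled and failed quality-control curves removed.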

Assay [2] concerns P12-Ichikawa. The assay is described as above. The note with it: 48 h. The procedure, abridged:
as §1

Where [3] appears, read: RPMI 5 mM glucose + 10% dialyzed FBS.

Regarding `CC(C)C1=N[N](C\2=C1C(=O)N\C(=N2)CC3=CC=C(OCCO)C=C3)C4=C(Cl)C=CC=C4Cl`, the “AUC of viability dose-response curve” value in assay [1] (HPLM + 10% dialyzed FBS) came to 225; in assay [1] (RPMI 5 mM glucose + 10% FBS), 226; in assay [1] (setting [3]), 222; in assay [2] (HPLM + 10% dialyzed FBS), 244; in assay [2] (RPMI 5 mM glucose + 10% FBS), 241; in assay [2] (setting [3]), 239.

Regarding `CCCCc1oc2ccccc2c1C(=O)c1cc(I)c(OCCN(CC)CC)c(I)c1`, the “AUC of viability dose-response curve” value amounted to 442 in assay [1] (HPLM + 10% dialyzed FBS); 450 in assay [1] (RPMI 5 mM glucose + 10% FBS); 457 in assay [1] (setting [3]); 451 in assay [2] (HPLM + 10% dialyzed FBS); 448 in assay [2] (RPMI 5 mM glucose + 10% FBS); 463 in assay [2] (setting [3]).

Turning to `CCCCc1ccc(N[S+](=O)([O-])c2ccc(C)c(C(=O)N3CCN(c4cccc(C)c4C)CC3)c2)cc1`, the “AUC of viability dose-response curve” value in assay [1] (HPLM + 10% dialyzed FBS) was found to be 457; in assay [1] (RPMI 5 mM glucose + 10% FBS) it was 435; in assay [1] (setting [3]) it was 473; in assay [2] (HPLM + 10% dialyzed FBS), 468; in assay [2] (RPMI 5 mM glucose + 10% FBS) it was 468; in assay [2] (setting [3]) it was 464.

Turning to `CC1CCN(c2cc(N3CCN(C)CC3)ccc2NC(=O)c2cc(C#N)c[nH]2)CC1`, the “AUC of viability dose-response curve” value is 457 in assay [1] (HPLM + 10% dialyzed FBS); 463 in assay [1] (RPMI 5 mM glucose + 10% FBS); 454 in assay [1] (setting [3]); 450 in assay [2] (HPLM + 10% dialyzed FBS); 453 in assay [2] (RPMI 5 mM glucose + 10% FBS); 453 in assay [2] (setting [3]).

On to `CC(=O)O/N=C1/C(=C2\C(=O)Nc3cc(Br)ccc32)Nc2ccccc21`, for which the “AUC of viability dose-response curve” value in assay [1] (HPLM + 10% dialyzed FBS) amounted to 431; in assay [1] (RPMI 5 mM glucose + 10% FBS), 450; in assay [1] (setting [3]), 443; in assay [2] (HPLM + 10% dialyzed FBS) it was 439; in assay [2] (RPMI 5 mM glucose + 10% FBS) it was 443; in assay [2] (setting [3]), 437.

With `COc1ccc2c(c1)CC[C@@H](CN(C)CC(=O)O)[C@H]2c1ccccc1`, the “AUC of viability dose-response curve” value in assay [1] (HPLM + 10% dialyzed FBS) worked out at 409; in assay [1] (RPMI 5 mM glucose + 10% FBS) it was 407; in assay [1] (setting [3]), 411; in assay [2] (HPLM + 10% dialyzed FBS), 368; in assay [2] (RPMI 5 mM glucose + 10% FBS), 369; in assay [2] (setting [3]), 390.
